The source of these data is patent US20100179095A1, “USE OF FOLATES FOR PRODUCING A PREPARATION SUITABLE FOR PREVENTING AND TREATING INFLAMMATION AND DISEASES ASSOCIATED WITH INFLAMMATION, ESPECIALLY FOR INFLUENCING THE INFLAMMATION MARKERS CRP AND SAA” (priority 2002, published 2010).

Structures are written as SMILES. Read-outs that look alike come from different tables or passages of the source.

For test [1], the system named is homocysteine (total) (Hcys). Nature of the test: Clinical study in haemodialysis patients: plasma homocysteine (total). It is filed as in vivo, human. As for the experimental part:
For the patients for whom all the measured values could be ascertained completely at any time, a “matched pair” analysis was performed in addition. For the individual patient, the values before therapy were compared, pair-wise, with those after 3 and 6 weeks of therapy.

For test [2], the system named is serum amyloid A protein (SAA). Nature of the test: Clinical study in haemodialysis patients: plasma SAA (immuno-nephelometry, N Latex SAA). The class given is in vivo, human. The following applies: for SAA MW (mean) / SAA Median: plasma, haemodialysis patients. An excerpt: (§1) For the individual patient, the values before therapy were compared, pair-wise, with those after 3 and 6 weeks of therapy.

In test [3] the test system is C-reactive protein (CRP). The test is described as follows: Clinical study in haemodialysis patients: plasma CRP (immuno-nephelometry, N High Sensitivity CRP). It is filed as in vivo, human. As to conditions: for CRP Median / CRP MW (mean): plasma, haemodialysis patients.
Description: as §1

For test [4], the system named is inflammation markers CRP and SAA. As to conditions: haemodialysis patients, 6 weeks of folate therapy.
Description: Clinical data were obtained via the prospective, randomised double blind study described below.
141 patients with terminal renal insufficiency, who were being treated with chronic haemodialysis on 3 days each week, and who were between 24 and 90 years old, were divided randomly into 4 therapy groups according to the sex of the patient and the presence or absence of a C677T point mutation on the gene for methylene tetrahydrofolate reductase. Randomisation based on the methylene tetrahydrofolate reductase mutation was effected in order to prevent an imbalance occurring within the individual therapy groups with regard to enzyme activity and thus with regard to folic acid metabolism also. […]
The first blood sample in the study was taken before the commencement of the administration of additional vitamins. […] The following measured quantities were each determined from plasma samples from the 3 blood samples taken: • homocysteine (total) (Hcys) • total folate (Fol) • vitamin B12 (B12) • vitamin B6 (B6) • neopterin (NEOP) • creatinine (Krea) • LDL- and HDL-cholesterol (HDL-Choi, LDL-Chol) • triglyceride (TG) • C-reactive protein (CRP) • amyloid A protein (SAA) […]
CRP and SAA were both measured by means of immuno-nephelometry and tests supplied by DadeBehring (N High Sensitivity CRP and N Latex SAA assays).
The mark [5] stands for this setting: 3 w vs 6 w, value after 3 weeks vs value after 6 weeks.
[6] abbreviates: BL vs 3 w, initial value vs value after 3 weeks.
Setting [7] is: BL vs 6 w, initial value vs value after 6 weeks.
[8] abbreviates: BL baseline before folate therapy.
Where [9] appears, read: BL baseline before folate therapy, basic vitamin preparation in all.
Setting [10] is: after 3 weeks (3 w) of therapy, 15 mg FTHF or MTHF, 7.5 mg PGA per day plus basic vitamin preparation.
Setting [11] is: after 6 weeks (6 w) of therapy, 15 mg FTHF or MTHF, 7.5 mg PGA per day plus basic vitamin preparation.

Turning to `Nc1nc2c(c(=O)[nH]1)N(C=O)[C@H](CNc1ccc(C(=O)N[C@@H](CCC(=O)O)C(=O)O)cc1)CN2` (mixture of isomers) [FTHF, 5-formyl-(6R,S)-tetrahydrofolic acid], the “Hcys matched pair analysis, significance of difference” value in test [1] (setting [5]) is “Ø”; in test [1] (setting [6]), “* (p < 0.05)”; in test [1] (setting [7]), “** (p < 0.01)”. In addition, the “SAA matched pair analysis, significance of difference” value was “* (p < 0.05)” in test [2] (setting [5]), “* (p < 0.05)” in test [2] (setting [6]) and “Ø” in test [2] (setting [7]). The “SAA MW (mean)” value was 28 mg/L in test [2] (setting [8]), 8 mg/L in test [2] (after 3 weeks (3 w) of therapy) and 35 mg/L in test [2] (after 6 weeks (6 w) of therapy). Besides, the figures for the “SAA Median” value in test [2] (setting [8]), in test [2] (after 3 weeks (3 w) of therapy) and in test [2] (after 6 weeks (6 w) of therapy) were 6 mg/L, 4 mg/L and 6 mg/L, respectively. Also, the “CRP matched pair analysis, significance of difference” value is on record as “Ø” in test [3] (setting [5]), “* (p < 0.05)” in test [3] (setting [6]) and “Ø” in test [3] (setting [7]). Moreover, the “CRP Median” value is 9 mg/L in test [3] (setting [8]), 5 mg/L in test [3] (after 3 weeks (3 w) of therapy) and 6 mg/L in test [3] (after 6 weeks (6 w) of therapy). Moreover, the “CRP MW (mean)” value in test [3] (setting [9]) stood at 16 mg/L; in test [3] (setting [10]) it was 9 mg/L; in test [3] (setting [11]), 18 mg/L.

As to `CN1c2c(nc(N)[nH]c2=O)NC[C@H]1CNc1ccc(C(=O)N[C@@H](CCC(=O)O)C(=O)O)cc1` (mixture of isomers) [MTHF, 5-methyl-(6R,S)-tetrahydrofolic acid], the “Hcys matched pair analysis, significance of difference” value is “Ø” in test [1] (setting [5]), “Ø” in test [1] (setting [6]) and “* (p < 0.05)” in test [1] (setting [7]). Also, the “SAA matched pair analysis, significance of difference” value in test [2] (setting [5]), in test [2] (setting [6]) and in test [2] (setting [7]) was “Ø” in each case. Besides, the results for the “SAA MW (mean)” value in test [2] (setting [8]), in test [2] (after 3 weeks (3 w) of therapy) and in test [2] (after 6 weeks (6 w) of therapy) were 34 mg/L, 19 mg/L and 13 mg/L, respectively. Also, the figures for the “SAA Median” value in test [2] (setting [8]), in test [2] (after 3 weeks (3 w) of therapy) and in test [2] (after 6 weeks (6 w) of therapy) were 11 mg/L, 10 mg/L and 9 mg/L, respectively. Besides, the “CRP matched pair analysis, significance of difference” value is “* (p < 0.05)” in test [3] (setting [5]), “* (p < 0.05)” in test [3] (setting [6]) and “** (p < 0.01)” in test [3] (setting [7]). Moreover, the “CRP Median” value in test [3] (setting [8]) was 11 mg/L; in test [3] (after 3 weeks (3 w) of therapy) it was 8 mg/L; in test [3] (after 6 weeks (6 w) of therapy), 7 mg/L. For the same molecule, the “CRP MW (mean)” value in test [3] (setting [9]) came to 19 mg/L; in test [3] (setting [10]), 11 mg/L; in test [3] (setting [11]) it was 9 mg/L. Also, the “effect on inflammation markers CRP and SAA (acute phase response), in words” value is “reduce the acute phase response” in test [4] and “most pronounced decrease in inflammation markers” in test [4] (listed as 5-methyl-(6R,S)-tetahydrofolic acid).

As to `Nc1nc2ncc(CNc3ccc(C(=O)N[C@@H](CCC(=O)O)C(=O)O)cc3)nc2c(=O)[nH]1` [PGA, folic acid], the figures for the “Hcys matched pair analysis, significance of difference” value in test [1] (setting [5]), in test [1] (setting [6]) and in test [1] (setting [7]) were “Ø”, “* (p < 0.05)” and “* (p < 0.05)”, respectively. The “SAA matched pair analysis, significance of difference” value is “* (p < 0.05)” in test [2] (setting [5]), “Ø” in test [2] (setting [6]) and “Ø” in test [2] (setting [7]). In addition, the “SAA MW (mean)” value was determined as 11 mg/L in test [2] (setting [8]), 12 mg/L in test [2] (after 3 weeks (3 w) of therapy) and 13 mg/L in test [2] (after 6 weeks (6 w) of therapy). Moreover, the “SAA Median” value in test [2] (setting [8]) turned out to be 7 mg/L; in test [2] (after 3 weeks (3 w) of therapy), 6 mg/L; in test [2] (after 6 weeks (6 w) of therapy), 10 mg/L. Also, the “CRP matched pair analysis, significance of difference” value in test [3] (setting [5]), in test [3] (setting [6]) and in test [3] (setting [7]) was “Ø” each time. For the same molecule, the “CRP Median” value amounted to 7 mg/L in test [3] (setting [8]), 8 mg/L in test [3] (after 3 weeks (3 w) of therapy) and 6 mg/L in test [3] (after 6 weeks (6 w) of therapy). The “CRP MW (mean)” value in test [3] (setting [9]) was 10 mg/L; in test [3] (setting [10]), 10 mg/L; in test [3] (setting [11]), 9 mg/L.
